Test results: patent US5607937A, “Piperazides of substituted phenylalanine derivatives as thrombin inhibitors” (priority 1993, dated 1997)
pKi: −log10 of the molar value. Like-named read-outs stand apart in the source and are kept apart here.

Columns and labels:
[1] = target: factor Xa (Bos taurus, UniProt P00743); assay: inhibition of factor Xa, dissociation constant Ki; format: biochemical; details: Table 1
Procedure: (§1) The biological activity of the compounds of the present invention was determined in vitro as well as in vivo.

[2] = target: plasma kallikrein (Homo sapiens, UniProt P03952); assay: inhibition of plasma kallikrein, dissociation constant Ki
Sequence of plasma kallikrein (P03952 391-638 limits assumed, species assumed): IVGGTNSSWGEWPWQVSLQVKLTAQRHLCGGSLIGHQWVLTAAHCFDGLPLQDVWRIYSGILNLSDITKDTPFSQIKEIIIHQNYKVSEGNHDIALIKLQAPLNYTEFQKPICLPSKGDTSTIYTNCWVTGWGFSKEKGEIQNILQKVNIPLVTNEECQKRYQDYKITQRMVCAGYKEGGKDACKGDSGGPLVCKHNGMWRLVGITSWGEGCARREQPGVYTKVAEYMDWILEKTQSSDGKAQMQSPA
Sequence of plasma kallikrein (P03952 20-390 partner limits assumed, species assumed): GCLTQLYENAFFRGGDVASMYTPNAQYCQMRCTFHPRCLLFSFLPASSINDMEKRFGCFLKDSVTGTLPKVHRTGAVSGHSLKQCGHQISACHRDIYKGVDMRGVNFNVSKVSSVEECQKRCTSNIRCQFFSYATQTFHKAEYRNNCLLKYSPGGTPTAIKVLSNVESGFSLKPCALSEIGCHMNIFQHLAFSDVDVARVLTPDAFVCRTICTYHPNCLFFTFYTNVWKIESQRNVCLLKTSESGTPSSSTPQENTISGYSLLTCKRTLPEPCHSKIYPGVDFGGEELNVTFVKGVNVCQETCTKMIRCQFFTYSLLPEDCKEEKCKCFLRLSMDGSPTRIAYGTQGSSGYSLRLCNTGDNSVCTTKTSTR

[3] = target: T1, factor XIIa (Homo sapiens, UniProt P00748); assay: inhibition of factor XIIa, dissociation constant Ki
T1 sequence (P00748 373-615 limits assumed): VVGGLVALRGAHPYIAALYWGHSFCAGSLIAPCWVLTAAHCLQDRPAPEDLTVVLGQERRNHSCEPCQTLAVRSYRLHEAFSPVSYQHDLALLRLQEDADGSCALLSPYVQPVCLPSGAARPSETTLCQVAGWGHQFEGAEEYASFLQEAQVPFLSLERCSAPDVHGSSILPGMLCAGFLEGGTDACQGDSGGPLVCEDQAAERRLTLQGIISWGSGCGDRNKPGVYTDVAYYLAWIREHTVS

[4] = target: plasmin (Homo sapiens, UniProt P00747); assay: inhibition of plasmin, dissociation constant Ki
Sequence of plasmin (P00747 581-810 limits assumed): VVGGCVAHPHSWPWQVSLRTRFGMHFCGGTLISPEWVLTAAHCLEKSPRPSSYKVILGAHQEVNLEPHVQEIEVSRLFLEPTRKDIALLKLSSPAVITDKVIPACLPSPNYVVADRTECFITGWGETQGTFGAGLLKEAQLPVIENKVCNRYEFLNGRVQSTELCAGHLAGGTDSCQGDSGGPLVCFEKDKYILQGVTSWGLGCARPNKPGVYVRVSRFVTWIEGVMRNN
Sequence of plasmin (P00747 97-580 partner limits assumed): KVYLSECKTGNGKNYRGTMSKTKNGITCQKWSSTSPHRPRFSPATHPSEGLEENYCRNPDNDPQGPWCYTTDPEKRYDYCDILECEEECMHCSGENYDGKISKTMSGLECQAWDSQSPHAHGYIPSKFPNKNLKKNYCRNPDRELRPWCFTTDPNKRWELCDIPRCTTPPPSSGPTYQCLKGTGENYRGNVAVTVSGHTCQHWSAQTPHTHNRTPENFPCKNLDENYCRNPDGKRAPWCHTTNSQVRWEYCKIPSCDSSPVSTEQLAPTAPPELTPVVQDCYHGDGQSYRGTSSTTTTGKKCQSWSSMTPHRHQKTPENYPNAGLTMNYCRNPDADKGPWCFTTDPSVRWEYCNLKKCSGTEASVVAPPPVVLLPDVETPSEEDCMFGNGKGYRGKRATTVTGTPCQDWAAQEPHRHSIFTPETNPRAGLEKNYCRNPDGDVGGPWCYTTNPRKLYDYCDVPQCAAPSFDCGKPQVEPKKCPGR

[5] = target: T2, thrombin (Bos taurus, UniProt P00735); assay: biochemical
[6] = target: glandular kallikrein (Sus scrofa, UniProt P00752); assay: inhibition of glandular kallikrein, dissociation constant Ki
Sequence of glandular kallikrein (P00752 8-246): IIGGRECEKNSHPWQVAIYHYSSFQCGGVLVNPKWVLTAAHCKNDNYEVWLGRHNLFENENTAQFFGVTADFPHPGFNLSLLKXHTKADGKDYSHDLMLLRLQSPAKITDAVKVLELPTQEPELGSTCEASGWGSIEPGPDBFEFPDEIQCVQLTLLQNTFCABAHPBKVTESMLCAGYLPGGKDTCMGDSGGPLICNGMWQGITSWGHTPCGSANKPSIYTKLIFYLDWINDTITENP

[7] = target: tPA (Homo sapiens, UniProt P00750); assay: inhibition of tPA, dissociation constant Ki
Sequence of tPA (P00750 36-562): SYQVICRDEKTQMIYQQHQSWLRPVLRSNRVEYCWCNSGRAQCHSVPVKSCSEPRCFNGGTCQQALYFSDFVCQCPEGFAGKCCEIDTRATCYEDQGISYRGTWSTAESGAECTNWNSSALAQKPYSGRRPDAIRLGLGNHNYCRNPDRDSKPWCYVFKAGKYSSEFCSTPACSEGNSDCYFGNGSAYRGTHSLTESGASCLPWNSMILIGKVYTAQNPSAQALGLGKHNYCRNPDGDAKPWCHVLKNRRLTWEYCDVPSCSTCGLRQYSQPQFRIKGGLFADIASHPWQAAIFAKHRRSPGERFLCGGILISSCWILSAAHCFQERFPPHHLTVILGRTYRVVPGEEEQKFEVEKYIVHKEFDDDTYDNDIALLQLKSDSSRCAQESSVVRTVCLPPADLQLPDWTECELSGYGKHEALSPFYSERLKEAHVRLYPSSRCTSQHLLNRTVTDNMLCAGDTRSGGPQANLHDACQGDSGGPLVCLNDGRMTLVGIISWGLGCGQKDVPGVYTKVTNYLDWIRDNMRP

[8] = target: T3, trypsin (Bos taurus, UniProt P00760); assay: inhibition of trypsin, dissociation constant Ki; format: biochemical; parameters: thrombin and the related enzymes trypsin, plasmin, factor Xa, factor XIIa; details: Table 1; read-out: Ki, Trypsin
T3 sequence (P00760 24-246): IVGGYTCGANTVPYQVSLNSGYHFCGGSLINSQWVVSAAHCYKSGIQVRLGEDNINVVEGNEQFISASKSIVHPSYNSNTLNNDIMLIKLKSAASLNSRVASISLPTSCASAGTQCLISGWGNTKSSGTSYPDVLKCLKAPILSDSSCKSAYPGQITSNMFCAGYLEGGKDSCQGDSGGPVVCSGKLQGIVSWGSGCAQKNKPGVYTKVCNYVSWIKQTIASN
Procedure: as §1

[9] = target: T2, thrombin
[10] = read-out: Ki, Thrombin, Table 1

Sequence of factor Xa (P00743 234-492 limits assumed): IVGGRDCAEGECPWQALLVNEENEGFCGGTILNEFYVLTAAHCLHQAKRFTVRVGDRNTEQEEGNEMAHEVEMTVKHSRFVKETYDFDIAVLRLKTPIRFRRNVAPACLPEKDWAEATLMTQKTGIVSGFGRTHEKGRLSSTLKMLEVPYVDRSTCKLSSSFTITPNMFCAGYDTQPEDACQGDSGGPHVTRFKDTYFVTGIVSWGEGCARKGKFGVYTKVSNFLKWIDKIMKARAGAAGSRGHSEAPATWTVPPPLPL
Sequence of factor Xa (P00743 41-180 partner limits assumed): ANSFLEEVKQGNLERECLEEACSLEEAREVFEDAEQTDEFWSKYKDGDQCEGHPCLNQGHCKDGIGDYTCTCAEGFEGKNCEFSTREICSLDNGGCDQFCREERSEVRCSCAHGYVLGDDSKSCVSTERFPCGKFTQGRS

| Structure (SMILES) | pKi [1] | pKi [2] | pKi [3] | pKi [5] | pKi [6] | pKi [7] | pKi [8] | pKi [4] | pKi ([9]; read-out: Thrombin inhibition Ki, Table 7) | pKi ([4]; read-out: Ki, Plasmin, Table 1) | pKi ([3]; Ki, Factor XIIa, Table 1) | pKi ([9]; read-out: Ki, Thrombin) | pKi [9, 10] |
| --- | --- | --- | --- | --- | --- | --- | --- | --- | --- | --- | --- | --- | --- |
| N=C(N)c1cccc(CC(NS(=O)(=O)c2ccc3ccccc3c2)C(=O)N2CCN(c3ncccn3)CC2)c1 (stereo not shown) [AMD 2-Naph 2-Pym] | 4.85 | 4.72 | 4.00 | 5.74 | < 3.00 | 3.49 | 7.21 | 5.48 |  |  |  |  |  |
| N=C(N)c1cccc(CC(NS(=O)(=O)c2ccc3ccccc3c2)C(=O)N2CCN(CCO)CC2)c1 (stereo not shown) [AMD 2-Naph EtOH] | 4.46 | 4.13 |  |  | < 3.00 | < 3.00 |  |  |  | 4.38 | < 3.00 | 7.24 |  |
| N=C(N)c1cccc(CC(NS(=O)(=O)c2ccc3ccccc3c2)C(=O)N2CCN(C=O)CC2)c1 (stereo not shown) [AMD 2-Naph For] | 4.72 | 4.80 | 4.08 |  | 3.36 | < 3.00 |  |  |  | 5.20 |  | 7.43 |  |
| CCCCCC(=O)N1CCN(C(=O)C(Cc2cccc(C(=N)N)c2)NS(=O)(=O)c2ccc3ccccc3c2)CC1 (stereo not shown) [AMD 2-Naph CO(CH2)4 CH3] | 4.72 | 4.64 | 3.57 |  | < 3.00 | < 3.00 |  |  |  | 5.59 |  |  | 5.19 |
| Cc1c(C)c(S(=O)(=O)NC(Cc2cccc(C(=N)N)c2)C(=O)N2CCN(S(C)(=O)=O)CC2)c(C)c2c1OC(C)(C)CC2 (stereo not shown) [AMD Pmc SO2 Me] | 4.12 | 3.85 | 3.85 |  | < 3.00 | < 3.00 |  |  |  |  |  |  | 8.13 |
| CS(=O)(=O)N1CCN(C(=O)C(Cc2cccc(C(=N)N)c2)NS(=O)(=O)c2ccc3ccccc3c2)CC1 (stereo not shown) [AMD 2-Naph SO2 Me] | 4.66 | 4.11 | 4.07 |  | < 3.00 | < 3.00 |  |  |  | 4.92 |  |  |  |
| N=C(N)c1cccc(CC(NS(=O)(=O)c2ccc3ccccc3c2)C(=O)N2CCN(C(=O)C3CCCCC3)CC2)c1 (stereo not shown) [AMD 2-Naph CO-cHex] |  | 4.10 | 3.46 |  | < 3.00 | < 3.00 |  |  |  | 4.99 |  |  |  |
| Cc1ccc(S(=O)(=O)N2CCN(C(=O)C(Cc3cccc(C(=N)N)c3)NS(=O)(=O)c3ccc4ccccc4c3)CC2)cc1 (stereo not shown) [AMD 2-Naph SO2 -Tol] | 4.62 | 4.52 | < 3.00 |  | < 3.00 | < 3.00 |  |  |  | 4.82 |  |  | 7.66 |
| N=C(N)c1cccc(CC(NS(=O)(=O)c2ccc3ccccc3c2)C(=O)N2CCN(S(=O)(=O)c3ccc4ccccc4c3)CC2)c1 (stereo not shown) [AMD 2-Naph SO2-2-Naph] | 4.60 | 4.66 | 4.05 |  | < 3.00 | < 3.00 |  |  |  | 4.96 |  |  | 7.62 |
| CCS(=O)(=O)N1CCN(C(=O)C(Cc2cccc(C(=N)N)c2)NS(=O)(=O)c2ccc3ccccc3c2)CC1 (stereo not shown) [AMD 2-Naph SO2 Et] | 4.62 | 4.24 | 3.67 |  | < 3.00 | 3.09 |  |  |  | 5.46 |  |  | 7.36 |
| COc1cc(C)c(S(=O)(=O)NC(Cc2cccc(C(=N)N)c2)C(=O)N2CCN(S(C)(=O)=O)CC2)c(C)c1C (stereo not shown) [AMD Mtr SO2 Me] | 3.92 | 3.82 | 3.20 |  | < 3.00 | < 3.00 |  |  |  | 4.74 |  |  | 7.49 |
| N=C(N)c1cccc(CC(NS(=O)(=O)c2ccc3ccccc3c2)C(=O)N2CCN(C(=O)C3CCC3)CC2)c1 (stereo not shown) [AMD 2-Naph CO-cBu] |  | 4.25 | < 3.00 | 5.60 | < 3.00 | < 3.00 | 7.59 | 5.12 |  |  |  |  |  |
| N=C(N)c1cccc(CC(NS(=O)(=O)c2ccc3ccccc3c2)C(=O)N2CCN(c3ccccn3)CC2)c1 (stereo not shown) [AMD 2-Naph 2-Pyl] | 4.92 | 4.72 | 4.08 | 6.28 | < 3.00 | < 3.00 | 7.46 | 5.48 |  |  |  |  |  |

The next lines start with results.

| pKi [1] | pKi [2] | pKi [3] | pKi [5] | pKi [6] | pKi [7] | pKi [8] | pKi [4] | pKi ([9]; read-out: Thrombin inhibition Ki, Table 7) | Structure (SMILES) | pKi ([4]; read-out: Ki, Plasmin, Table 1) | pKi ([3]; Ki, Factor XIIa, Table 1) | pKi ([9]; read-out: Ki, Thrombin) | pKi [9, 10] |
| --- | --- | --- | --- | --- | --- | --- | --- | --- | --- | --- | --- | --- | --- |
| 5.40 | 5.14 | 4.33 | 7.01 | 3.70 | 4.77 | 6.66 |  |  | CC(=O)N1CCN(C(=O)C(Cc2cccc(C(=N)N)c2)NS(=O)(=O)c2c(C(C)C)cc(C(C)C)cc2C(C)C)CC1 (stereo not shown) [AMD TIPP Ac] | 5.52 |  |  |  |
|  | 5.44 | 4.38 | 7.96 | < 3.00 | 3.92 | 7.14 |  |  | N=C(N)c1cccc(C[C@H](NS(=O)(=O)c2ccc3ccccc3c2)C(=O)N2CCN(C=O)CC2)c1 [AMD(L) 2-Naph For] |  |  |  |  |
| 4.89 | 6.00 | 3.16 | 7.12 | < 3.00 | < 3.00 | 6.23 | 4.51 |  | Cc1cc(C)c(S(=O)(=O)N2CCN(C(=O)C(Cc3cccc(C(=N)N)c3)NS(=O)(=O)c3ccc4ccccc4c3)CC2)c(C)c1 (stereo not shown) [AMD 2-Naph SO2 -TMeP] |  |  |  |  |
| 4.59 | 4.03 | < 3.00 | 7.48 | < 3.00 | < 3.00 | 6.24 | 4.89 |  | Cc1c(C)c(S(=O)(=O)NC(Cc2cccc(C(=N)N)c2)C(=O)N2CCN(C(=O)N(C)C)CC2)c(C)c2c1OC(C)(C)CC2 (stereo not shown) [AMD Pmc CO-N(Me)2] |  |  |  |  |
| 4.08 | 4.30 | < 3.00 | 6.59 | < 3.00 | 3.36 | 7.20 | 5.03 |  | CC(C)C(=O)N1CCN(C(=O)C(Cc2cccc(C(=N)N)c2)NS(=O)(=O)c2ccc3ccccc3c2)CC1 (stereo not shown) [AMD 2-Naph COCH(Me)2] |  |  |  |  |
| 4.35 | 4.66 | 3.27 | 6.85 | < 3.00 | 3.77 | 7.36 | 5.29 |  | N=C(N)c1cccc(CC(NS(=O)(=O)c2ccc3ccccc3c2)C(=O)N2CCN(C(=O)C3CC3)CC2)c1 (stereo not shown) [AMD 2-Naph CO-cPr] |  |  |  |  |
| 4.80 | 4.80 | 4.13 | 5.89 | < 3.00 | < 3.00 | 7.18 | 5.21 |  | COCC(=O)N1CCN(C(=O)C(Cc2cccc(C(=N)N)c2)NS(=O)(=O)c2ccc3ccccc3c2)CC1 (stereo not shown) [AMD 2-Naph COCH2 OMe] |  |  |  |  |
| 4.80 | 4.72 | 4.14 | 5.60 | < 3.00 | 3.77 | 7.09 | 5.57 |  | N=C(N)c1cccc(CC(NS(=O)(=O)c2ccc3ccccc3c2)C(=O)N2CCN(C(=O)Cc3cccs3)CC2)c1 (stereo not shown) [AMD 2-Naph drawing 11] |  |  |  |  |
| 5.77 | 4.96 | 5.14 | 7.51 | < 3.00 | 4.08 | 7.48 | 4.89 |  | N=C(N)c1cccc(CC(NS(=O)(=O)c2ccc3c(c2)C(=O)c2ccccc2C3=O)C(=O)N2CCN(C=O)CC2)c1 (stereo not shown) [AMD AC For] |  |  |  |  |
| 3.82 | 4.36 | 3.38 | 7.13 | 3.12 | 3.17 | 6.22 | 4.94 |  | CC(=O)N1CCN(C(=O)C(Cc2cccc(C(=N)N)c2)NS(=O)(=O)c2c(C)c(C)c3c(c2C)CCC(C)(C)O3)CC1 (stereo not shown) [AMD Pmc Ac] |  |  |  |  |
| 3.89 | 4.03 | < 3.00 | 4.62 | < 3.00 | < 3.00 | 6.28 | 4.59 |  | NCc1cccc(CC(NS(=O)(=O)c2ccc3ccccc3c2)C(=O)N2CCN(c3ccccn3)CC2)c1 (stereo not shown) [Ame 2-Naph 2-Pyl] |  |  |  |  |
| 4.60 | 5.16 | 5.12 | 7.30 | < 3.00 | < 3.00 | 5.82 | 4.43 |  | COc1cc(C)c(S(=O)(=O)N2CCN(C(=O)C(Cc3cccc(C(=N)N)c3)NS(=O)(=O)c3ccc4ccccc4c3)CC2)c(C)c1C (stereo not shown) [AMD 2-Naph SO2 -Mtr] |  |  |  |  |
| 4.04 | 3.74 | < 3.00 | 7.23 | < 3.00 | < 3.00 | 5.48 | 4.32 |  | Cc1c(C)c(S(=O)(=O)NC(Cc2cccc(C(=N)N)c2)C(=O)N2CCN(CCO)CC2)c(C)c2c1OC(C)(C)CC2 (stereo not shown) [AMD Pmc EtOH] |  |  |  |  |
| 5.01 | 4.10 | < 3.00 |  | < 3.00 | < 3.00 |  |  | 7.59 | CS(=O)(=O)N1CCN(C(=O)C(Cc2cccc(C(=N)N)c2)NS(=O)(=O)c2cccc3ccccc23)CC1 (stereo not shown) [Compound 11] | 5.30 |  |  | 7.59 |
